Measurements reported in PMC9916770, “Lycorine Carbamate Derivatives for Reversing P-glycoprotein-Mediated Multidrug Resistance in Human Colon Adenocarcinoma Cells” (International Journal of Molecular Sciences, 2023).

Assays:
MRC-5 cells = assay: MTT antiproliferative assay, normal lung fibroblasts; type: cell-based; details: Homo sapiens, normal embryonal lung fibroblasts, 72 h, mean ± SD, read-out: IC50 MCR-5 (C)
Protocol: (§1) The human colon adenocarcinoma cell lines Colo205 doxorubicin-sensitive (CCL-222, ATCC, Manassas, VA, USA) and the resistant Colo320/MDR-LRP expressing P-gp were purchased from LGC Promochem (Teddington, UK). The MRC-5 human embryonal lung fibroblast cell line (CCL-171, ATCC) was purchased from Sigma-Aldrich (Merck KGaA, Darmstadt, Germany). The human colon adenocarcinoma cells (Colo205 and Colo320) were cultured in an RPMI 1640 medium supplemented with 10% fetal bovine serum (FBS), 2 mM L-glutamine, 1 mM Na-pyruvate, and 100 mM HEPES. The semi-adherent human colon cancer cells were detached with a trypsin-Versene (EDTA) solution for 5 min at 37 °C. The MRC-5 human embryonal lung fibroblast cells were cultured in EMEM containing 4.5 g/L of glucose and supplemented with a non-essential amino acid mixture, a selection of vitamins, and 10% FBS. The cell lines were incubated at 37 °C, 5% CO2, and 95% air atmosphere.
(§2) The antiproliferative effect of the compounds was tested in decreasing serial dilutions of compounds (starting with 100 µM, then two-fold serial dilution) on human cell lines (Colo205, Colo320, and MRC-5) in 96-well flat-bottomed microtiter plates. Firstly, the compounds were diluted in 100 µL of the medium, and then 6 × 10^3 cells (Colo205 and Colo320), in 100 µL of medium, were added to each well, excluding the medium control wells. The MRC-5 adherent cell line was seeded in the EMEM medium for at least 4 h before the assay. The two-fold serial dilutions of the compounds were made in a separate plate (100–0.19 μM) and then transferred to the plates containing the adherent corresponding cell line. Culture plates were incubated at 37 °C for 72 h, and at the end of the incubation period, 20 μL of MTT (thiazolyl blue tetrazolium bromide) solution (from a 5 mg/mL stock solution) was added to each well and incubated for an additional 4 h. Then, 100 μL of sodium dodecyl sulfate (SDS) solution (10% SDS in 0.01 M HCl) was added to each well, and the plates were further incubated at 37 °C overnight in a CO2 incubator. Cell growth was determined by measuring the optical density (OD) at 540/630 nm with a Multiscan EX ELISA reader (Thermo Labsystems, Cheshire, WA, USA). […] IC50 values and the standard deviation (SD) of triplicate experiments were calculated by using GraphPad Prism 5 software for Windows. Doxorubicin (2 mg/mL, Teva Pharmaceuticals, Budapest, Hungary) was used as a positive control and the vehicle DMSO as the negative control. (1) IC50=[ODsample−ODmedium control/ODcell control−ODmedium control]×100
(§3) The relative resistance (RR) was calculated as the ratio of the IC50 value in the resistant cancer cells and the IC50 in the sensitive cancer cell lines. The selectivity indexes (SI) were calculated as the ratio of the IC50 values in the non-tumor cells and the IC50 in the cancer cell lines. The activity of the compounds toward cancer cells is considered strongly selective if the selectivity index (SI) value is higher than 6, moderately selective if 3 < SI < 6, slightly selective if 1 < SI < 3, and non-selective if SI is lower than 1.

Colo320 cells [1] = assay: MTT antiproliferative assay, resistant cells; type: cell-based, human; details: for IC50: Homo sapiens, COLO 320, resistant Colo320, MTT, 72 h, mean ± SD, read-out: IC50 Colo320 (B); for SI (selectivity index) C/B: IC50 MRC-5 / IC50 Colo320
Protocol: as §1, §2, §3

Colo205 cells = assay: MTT antiproliferative assay, sensitive cells; type: cell-based, human; details: for IC50: Homo sapiens, COLO 205, sensitive Colo205, MTT, 72 h, mean ± SD; for SI (selectivity index) C/A: IC50 MRC-5 / IC50 Colo205
Protocol: as §1, §2, §3

Colo320 cells [2] = assay: Checkerboard drug combination assay with doxorubicin; type: cell-based, human; details: for Type of interaction: Colo320
Protocol: The interaction of lycorine (1) and some selected derivatives (2, 5, 9, 13, 16, 19, 25, and 26) in combination with the chemotherapeutic drug doxorubicin was performed by the checkerboard assay, a widely used technique for assessing drug interactions, in resistant human Colo320 colon adenocarcinoma cells. The type of drug–drug interaction was evaluated by using the Chou and Talalay method for drug combination and expressed using the combination index (CI) values, and therefore evaluated as synergism (CI < 1), additive (CI = 1), or antagonist (CI > 1).
Drug combination interactions between the compounds and the chemotherapeutic drug doxorubicin were assessed by the checkboard microplate assay on the resistant Colo320, expressing the P-gp transporter. Doxorubicin was serially diluted in the horizontal direction in 100 µL, starting with 8.6 µM, and the compounds were subsequently diluted in the vertical direction in 50 µL. The starting concentration was determined based on the IC50 values. The cells were resuspended in a culture medium and distributed into each well in 50 µL, containing 6 × 10^3 cells, to a final volume of 200 µL per well. The plates were incubated for 72 h at 37 °C in a CO2 incubator, and the cell growth was determined by the MTT staining method, as described previously. Drug interactions were evaluated using CompuSyn software to plot 4 or 5 data points for each ratio (ref software). The results were expressed in terms of combination index (CI) values of 50% growth inhibition, in which a CI value close to 1 indicates additivity, while a CI < 1 is defined as synergy, and a CI > 1 as antagonism.

Structure (SMILES) | IC50 (MRC-5 cells) [µM] | IC50 (Colo320 cells [1]) [µM] | SI (selectivity index) C/B (Colo320 cells [1]) | RR (relative resistance ratio) B/A (Colo320 cells [1]; IC50 resistant Colo320 / IC50 sensitive Colo205) | IC50 (Colo205 cells) [µM] | SI (selectivity index) C/A (Colo205 cells) | Type of interaction (Colo320 cells [2]) | CI at IC50 (combination index) (Colo320 cells [2]; Colo320, 50% growth inhibition)
O[C@H]1[C@H]2c3cc4c(cc3CN3CCC(=C[C@@H]1O)[C@H]23)OCO4 [Compound 1, lycorine] | 3.04 ± 0.11 | 0.93 ± 0.01 | 3.26 | 0.87 | 1.06 ± 0.02 | 2.86 | Moderate antagonism | –
O=C(OC1C=C2CCN3Cc4cc5c(cc4C(C1O)C23)OCO5)N1CCOCC1 (centres unmarked) [Compound 3, Lycorine 2-yl morpholine-4-carboxylate] | > 100 | > 100 | – | – | > 100 | – | – | –
COc1ccc(CCNC(=O)OC2C=C3CCN4Cc5cc6c(cc5C(C2OC(=O)NCCc2ccc(OC)cc2)C34)OCO6)cc1 (centres unmarked) [Compound 4, Lycorine 1,2-diyl bis [(4-methoxyphenethyl)carbamate]] | > 100 | > 100 | – | – | > 100 | – | – | –
Cc1ccc(CNC(=O)OC2C=C3CCN4Cc5cc6c(cc5C(C2O)C34)OCO6)cc1 (centres unmarked) [Compound 6, Lycorine 2-yl (4-methylbenzyl)carbamate] | > 100 | > 100 | – | – | > 100 | – | – | –
O=C(NCc1ccc2c(c1)OCO2)OC1C=C2CCN3Cc4cc5c(cc4C(C1OC(=O)NCc1ccc4c(c1)OCO4)C23)OCO5 (centres unmarked) [Compound 7, Lycorine 1,2-diyl bis[(piperonyl)carbamate]] | > 100 | > 100 | – | – | > 100 | – | – | –
O=C(NCc1ccc2c(c1)OCO2)OC1C=C2CCN3Cc4cc5c(cc4C(C1O)C23)OCO5 (centres unmarked) [Compound 8, Lycorine 2-yl (piperonyl)carbamate] | > 100 | > 100 | – | – | > 100 | – | – | –
O=C(NCCc1ccccc1)O[C@H]1C=C2CCN3Cc4cc5c(cc4[C@H]([C@@H]1O)[C@@H]23)OCO5 [Compound 10, lycorine 2-yl phenethylcarbamate] | > 100 | > 100 | – | – | > 100 | – | – | –
COc1ccc(CNC(=O)OC2C=C3CCN4Cc5cc6c(cc5C(C2O)C34)OCO6)cc1 (centres unmarked) [Compound 11, Lycorine 2-yl (4-methoxylbenzyl)carbamate] | > 100 | > 100 | – | – | > 100 | – | – | –
CN(Cc1ccccc1)C(=O)OC1C=C2CCN3Cc4cc5c(cc4C(C1O)C23)OCO5 (centres unmarked) [Compound 12, Lycorine 2-yl benzyl(methyl)carbamate] | > 100 | > 100 | – | – | > 100 | – | – | –
O=C(OC1C=C2CCN3Cc4cc5c(cc4C(C1O)C23)OCO5)N1CCc2ccccc2C1 (centres unmarked) [Compound 13, Lycorine 2-yl 3,4-dihydroisoquinoline-2(1H)-carboxylate] | > 100 | 78 ± 3.82 | – | – | 96.26 ± 0.33 | – | Synergism | 0.69
O=C(OC1C=C2CCN3Cc4cc5c(cc4C(C1OC(=O)N1CCCC1)C23)OCO5)N1CCCC1 (centres unmarked) [Compound 14, Lycorine 1,2-diyl bis(pyrrolidine-1-carboxylate)] | > 100 | > 100 | – | – | > 100 | – | – | –
O=C(OC1C=C2CCN3Cc4cc5c(cc4C(C1O)C23)OCO5)N1CCCC1 (centres unmarked) [Compound 15, Lycorine 2-yl pyrrolidine-1-carboxylate] | > 100 | > 100 | – | – | > 100 | – | – | –
O=C(OC1C=C2CCN3Cc4cc5c(cc4C(C1O)C23)OCO5)N1CCCCC1 (centres unmarked) [Compound 17, Lycorine 2-yl piperidine-1-carboxylate] | > 100 | > 100 | – | – | > 100 | – | – | –
CC(C)(C)c1ccc(CNC(=O)OC2C=C3CCN4Cc5cc6c(cc5C(C2OC(=O)NCc2ccc(C(C)(C)C)cc2)C34)OCO6)cc1 (centres unmarked) [Compound 18, Lycorine 1,2-diyl bis[(4-(tert-butyl)benzyl)carbamate]] | > 100 | > 100 | – | – | > 100 | – | – | –
O=C(NCc1ccccc1F)OC1C=C2CCN3Cc4cc5c(cc4C(C1OC(=O)NCc1ccccc1F)C23)OCO5 (centres unmarked) [Compound 20, Lycorine 1,2-diyl bis[(2-fluorobenzyl)carbamate]] | > 100 | > 100 | – | – | > 100 | – | – | –
O=C(NCc1ccccc1F)OC1C=C2CCN3Cc4cc5c(cc4C(C1O)C23)OCO5 (centres unmarked) [Compound 21, Lycorine 2-yl (2-fluorobenzyl)carbamate] | > 100 | > 100 | – | – | > 100 | – | – | –
O=C(NCc1cccc(C(F)(F)F)c1)O[C@H]1[C@H]2c3cc4c(cc3CN3CCC(=C[C@@H]1OC(=O)NCc1cccc(C(F)(F)F)c1)[C@H]23)OCO4 [Compound 22, Lycorine 1,2-diyl bis[(3-(trifluoromethyl)benzyl)carbamate]] | > 100 | > 100 | – | – | > 100 | – | – | –
O=C(NCCc1ccc(F)cc1)OC1C=C2CCN3Cc4cc5c(cc4C(C1OC(=O)NCCc1ccc(F)cc1)C23)OCO5 (centres unmarked) [Compound 23, Lycorine 1,2-diyl bis[(4-fluorophenethyl) carbamate]] | 3.79 ± 0.21 | > 100 | <0.037 | – | > 100 | <0.037 | – | –
O=C(NCCc1ccc(F)cc1)OC1C=C2CCN3Cc4cc5c(cc4C(C1O)C23)OCO5 (centres unmarked) [Compound 24, Lycorine 2-yl (4-fluorophenethyl)carbamate] | > 100 | > 100 | – | – | > 100 | – | – | –
O=C(NCc1ccc(F)cc1)OC1C=C2CCN3Cc4cc5c(cc4C(C1OC(=O)NCc1ccc(F)cc1)C23)OCO5 (centres unmarked) [Compound 27, Lycorine 1,2-diyl bis[(4-fluorobenzyl)carbamate]] | > 100 | > 100 | – | – | > 100 | – | – | –
O=C(NCc1ccc(F)cc1)OC1C=C2CCN3Cc4cc5c(cc4C(C1O)C23)OCO5 (centres unmarked) [Compound 28, Lycorine 2-yl (4-fluorobenzyl)carbamate] | > 100 | > 100 | – | – | > 100 | – | – | –
CCCNC(=O)OC1C=C2CCN3Cc4cc5c(cc4C(C1OC(=O)NCCC)C23)OCO5 (centres unmarked) [Compound 29, Lycorine 1,2-diyl bis(propylcarbamate)] | > 100 | > 100 | – | – | > 100 | – | – | –
CCCNC(=O)OC1C=C2CCN3Cc4cc5c(cc4C(C1O)C23)OCO5 (centres unmarked) [Compound 30, Lycorine 2-yl propylcarbamate] | > 100 | > 100 | – | – | > 100 | – | – | –
O=C(NCc1ccccc1)OC1C=C2CCN3Cc4cc5c(cc4C(C1OC(=O)NCc1ccccc1)C23)OCO5 (centres unmarked) [Compound 32, Lycorine 1,2-diyl bis(benzylcarbamate)] | 71.9 ± 5.38 | > 100 | – | – | > 100 | – | – | –
